Measurements as given in patent publication US9765091B2, “Tetrahydropyrazolo [3,4-b] azepine derivatives and their use as allosteric modulators of metabotropic glutamate receptors” (Addex Pharma S.A., priority 2010, dated 2017).

Key:
human mGluR4 = molecular target: T1, human mGluR4 (Homo sapiens, UniProt Q14833); experiment: Fluorescent cell based Ca2+ mobilization assay (FLIPR) on HEK-293 cells expressing human mGluR4; conditions: positive allosteric modulation, HEK-293 cells expressing hmGluR4, stimulated by EC25 glutamate; mean of at least three independent experiments in duplicate; read-out: Ca^2+ Flux* (mean EC50)
T1 construct: expressed in transfected cells
T1 sequence (Q14833 33-912): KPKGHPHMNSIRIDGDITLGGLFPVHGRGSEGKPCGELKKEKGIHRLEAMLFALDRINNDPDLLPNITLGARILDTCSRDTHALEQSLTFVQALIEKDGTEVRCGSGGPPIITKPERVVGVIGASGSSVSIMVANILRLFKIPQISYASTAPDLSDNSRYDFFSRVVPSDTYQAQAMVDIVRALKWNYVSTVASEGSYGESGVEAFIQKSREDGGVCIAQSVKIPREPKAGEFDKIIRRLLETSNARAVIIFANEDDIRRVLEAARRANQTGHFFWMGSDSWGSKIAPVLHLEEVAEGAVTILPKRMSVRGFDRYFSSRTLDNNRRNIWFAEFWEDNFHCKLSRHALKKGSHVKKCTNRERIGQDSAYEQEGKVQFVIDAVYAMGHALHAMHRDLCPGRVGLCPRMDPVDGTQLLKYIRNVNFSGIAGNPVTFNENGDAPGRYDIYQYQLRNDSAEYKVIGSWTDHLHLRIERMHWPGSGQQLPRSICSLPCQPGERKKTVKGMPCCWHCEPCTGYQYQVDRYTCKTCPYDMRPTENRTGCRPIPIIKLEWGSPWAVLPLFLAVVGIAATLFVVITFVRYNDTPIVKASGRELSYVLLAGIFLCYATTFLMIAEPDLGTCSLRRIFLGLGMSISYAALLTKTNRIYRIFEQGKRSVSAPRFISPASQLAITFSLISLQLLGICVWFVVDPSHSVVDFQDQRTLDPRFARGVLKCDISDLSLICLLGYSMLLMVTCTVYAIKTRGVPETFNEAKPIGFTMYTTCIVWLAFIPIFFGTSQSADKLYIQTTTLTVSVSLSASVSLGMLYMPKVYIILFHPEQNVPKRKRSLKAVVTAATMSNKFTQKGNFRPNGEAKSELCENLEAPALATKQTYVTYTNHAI

| EC50 (human mGluR4) | melting point | Structure (SMILES) |
| --- | --- | --- |
| < 0.1 µM | 233 °C | COCC(C)N1CCc2sc(Nc3nccc(C)n3)nc2-c2c[nH]nc21 (centres unmarked) [Compound 1-11, 6-(1-Methoxypropan-2-yl)-N-(4-methylpyrimidin-2-yl)-4,5,6,8-tetrahydropyrazolo[3,4-b]thiazolo[4,5-d]azepin-2-amine] |
| < 0.1 µM | 203 °C | COCCN1CCc2sc(Nc3cccc(F)n3)nc2-c2c[nH]nc21 [Compound 1-14, N-(6-Fluoropyridin-2-yl)-6-(2-methoxyethyl)-4,5,6,8-tetrahydropyrazolo[3,4-b]thiazolo[4,5-d]azepin-2-amine] |
| 0.1 to 1 µM | 218 °C | COCCN1CCc2sc(Nc3ccc(F)cn3)nc2-c2c[nH]nc21 [Compound 1-15, N-(5-Fluoropyridin-2-yl)-6-(2-methoxyethyl)-4,5,6,8-tetrahydropyrazolo[3,4-b]thiazolo[4,5-d]azepin-2-amine] |
| < 0.1 µM | 275 °C | Cc1noc(C)c1CN1CCc2sc(Nc3ncc(F)cn3)nc2-c2c[nH]nc21 [Compound 1-23, 6-((3,5-Dimethylisoxazol-4-yl)methyl)-N-(5-fluoropyrimidin-2-yl)-4,5,6,8-tetrahydropyrazolo[3,4-b]thiazolo[4,5-d]azepin-2-amine] |
| < 0.1 µM | 271 °C | CC(C)c1nc(CN2CCc3sc(Nc4ncc(F)cn4)nc3-c3c[nH]nc32)co1 [Compound 1-24, N-(5-Fluoropyrimidin-2-yl)-6-((2-isopropyloxazol-4-yl)methyl)-4,5,6,8-tetrahydropyrazolo[3,4-b]thiazolo[4,5-d]azepin-2-amine] |
| < 0.1 µM | 312 °C | Fc1cnc(Nc2nc3c(s2)CCNc2n[nH]cc2-3)nc1 [Compound 1-25, N-(5-Fluoropyrimidin-2-yl)-4,5,6,8-tetrahydropyrazolo[3,4-b]thiazolo[4,5-d]azepin-2-amine] |
| < 0.1 µM | 306 °C | CCN1CCc2sc(Nc3ncc(F)cn3)nc2-c2c[nH]nc21 [Compound 1-34, 6-Ethyl-N-(5-fluoropyrimidin-2-yl)-4,5,6,8-tetrahydropyrazolo[3,4-b]thiazolo[4,5-d]azepin-2-amine] |
| < 0.1 µM | 280 °C | Cc1cc(CN2CCc3sc(Nc4ncc(F)cn4)nc3-c3c[nH]nc32)on1 [Compound 1-35, N-(5-Fluoropyrimidin-2-yl)-6-((3-methylisoxazol-5-yl)methyl)-4,5,6,8-tetrahydropyrazolo[3,4-b]thiazolo[4,5-d]azepin-2-amine] |
| 0.1 to 1 µM | 285 °C | Cc1cccc(Nc2nc3c(s2)CCN(CC2CC2)c2n[nH]cc2-3)n1 [Compound 1-39, 6-(Cyclopropylmethyl)-N-(6-methylpyridin-2-yl)-4,5,6,8-tetrahydropyrazolo[3,4-b]thiazolo[4,5-d]azepin-2-amine] |
| 0.1 to 1 µM | 297 °C | Fc1cccc(Nc2nc3c(s2)CCN(CC2CC2)c2n[nH]cc2-3)n1 [Compound 1-40, 6-(Cyclopropylmethyl)-N-(6-fluoropyridin-2-yl)-4,5,6,8-tetrahydropyrazolo[3,4-b]thiazolo[4,5-d]azepin-2-amine] |
